# Values joined by “and” are separate entries in the source; they are usually repeats but may differ in a detail not shown here. Equal values may be shown once. Where a name gives a salt, the structure may show the parent alone.
# Experiments:
# [1] = for stability of aqueous pharmaceutical concentration: across the exposure period; for Concentration, 24 h: exposure media after 24 h of exposure with Day 1 solution; for Concentration, 24 h / Concentration, Day 1 (initial pharmaceutical concentration on day 1): n = 3; for Concentration, 48 h: exposure media after 24 h of exposure with Day 2 solution, n = 3 (propranolol n = 2); for Concentration, Day 2 (initial pharmaceutical concentration on day 2): n = 2; for Concentration, Day 1 (initial pharmaceutical concentration on day 1): nominal 1 μg L^−1 (propranolol 10 μg L^−1)
# Description: (§1) Individual adult organisms (n = 25), both male and female (>5 mg wet weight) were placed in Pyrex glass beakers. G. pulex were carefully transferred to beakers using blunt forceps to avoid any harm to the organisms before exposure. Each beaker contained 25 organisms in 200 mL of exposure media (AFW and test compound). […] All exposure media contained <0.001% of organic solvent (methanol). A total of 300 organisms were used per compound exposure and were sampled for n = 3 per time-point. […] These were subsequently analysed for background contamination. […] Each animal specimen was rinsed with ultra-pure water and then frozen at −20 °C.
# (§2) Water samples collected from exposure experiments were filtered using Whatman filters (0.2 μM) and directly injected onto the LC-MS/MS for analysis. For G. pulex, A mass of 50 mg of lyophilised and ground material was extracted by glass bead pulverisation in 5 mL of acetonitrile and diluted with 100 mL of ammonium acetate buffer (10 mM) for loading onto Waters HLB solid phase extraction (SPE) cartridges (6 cc, 200 mg sorbent).
# Gammarus pulex [2] = experiment: in vivo; conditions: for BCFss: steady-state BCF estimation, 48 h
# Description: as §1, §2
# (§3) Briefly, separations were performed on an Agilent HP1100 LC system configured with a Waters SunFire reversed-phase C18 column (150 mm × 2.1 mm, 2.5 μM particle size). […] Detection was performed using a Waters Quattro triple quadrupole mass spectrometer with electrospray ionisation operated in positive and negative polarity switching mode. Quantification of analytes was performed using 3-point internal standard matrix-matched calibration using the peak area ratio of non-labelled analyte (precursor range: 50–300 ng g^−1, biotransformation product range: 50–150 ng g^−1) to the stable isotope labelled internal standard (SIL-IS) (100 ng g^−1).
# (§4) Herein, the authors define BCFtotal as the summation of the BCF of both parent/precursor and biotransformation products (i.e. the total body burden). Whereas, BCFparent will be used to describe the BCF determined for the parent compound alone.
# in vivo = conditions: both, Gammarus pulex, in vivo, G. pulex; for concentration at 6 h: 6h Mean; for concentration at 24 h: 24h Mean
# Description: as §1, §2, §3, §4
# Gammarus fossarum = conditions: ref Sordet et al., 2016; cited from earlier work
# [3] = test system: Pimephales notatus and I. punctatus; parameters: method as in Garcia et al., 2012; conditions: depending on tissue; ref Garcia et al., 2012; cited from earlier work
# [4] = test system: Mytilus galloprovincialis; conditions: ref Gomez et al., 2012; cited from earlier work
# G. pulex = conditions: ref Miller et al., 2016, cited from earlier work; for SeqBCF, Full Design: sequential BCF; for SeqBCF^a, Full Design: sequential estimation using minitab; for SimBCF, Full Design: simultaneous BCF
# Gammarus pulex [5] = experiment: Biotransformation products in G. pulex after exposure to propranolol, carbamazepine or diazepam (LC-MS/MS); conditions: for k2 of biotransformation product: depuration phase; for detection of biotransformation product in G. pulex at 96 h: after exposure to the precursor compound, end of depuration
# Description: as §1, §3
# A matrix effect and recovery experiment was performed for these additional analytes before exposures were performed (SI Table S5).
# [6] = both, Gammarus pulex, in vivo, pH 8.19
# [7] = pH 8.19, internal concentration at the end of the uptake phase, 48 h, exposure 1 μg L^−1 (propranolol 10 μg L^−1)
# [8] = pH 8.19, Concentration, n=3, exposure 1 μg L^−1 (warfarin, propranolol 10 μg L^−1)
# [9] = pH 8.19, Concentration, 48h Mean, n=3, exposure 1 μg L^−1 (warfarin, propranolol 10 μg L^−1)
# [10] = k1 re-calculated over time intervals of the uptake phase
# [11] = sequential, Levenberg-Marquardt algorithm, exposure 1 μg L^−1 (warfarin, propranolol 10 μg L^−1)
# [12] = sequential, linear regression on elimination data, exposure 1 μg L^−1 (warfarin, propranolol 10 μg L^−1)
# [13] = simultaneous parametrisation, exposure 1 μg L^−1 (warfarin, propranolol 10 μg L^−1)
smiles,measurement,setting,value
"COCCc1ccc(OCC(O)CNC(C)C)cc1 (racemic) [Metoprolol, (±)-metoprolol (+)-tartrate salt]",stability of aqueous pharmaceutical concentration,[1],remained stable
same,"Concentration, 24 h",[1],0.72 ng/mL
same,"Concentration, 48 h",[1],0.87 µg/L
same,"Concentration, Day 2 (initial pharmaceutical concentration on day 2)",[1]; exposure media,0.86 ng/mL
same,"Concentration, Day 1 (initial pharmaceutical concentration on day 1)",[1]; exposure media,0.77 ng/mL
same,"BCFparent, Sequential a",Gammarus pulex [2]; [6],39 L/kg
same,"BCFparent, Sequential b",Gammarus pulex [2]; [6],37 L/kg
same,"BCFparent, Simultaneous",Gammarus pulex [2]; [6],17 L/kg
same,"k1 (uptake rate constant), Simultaneous",Gammarus pulex [2]; [6],0.4413
same,"k1, Sequential a",Gammarus pulex [2]; [6],0.2788
same,"k1, Sequential b",Gammarus pulex [2]; [6],0.2855
same,"k2 (depuration rate constant), Simultaneous",Gammarus pulex [2]; [6],0.0259
same,"k2, Sequential a",Gammarus pulex [2]; [6],0.0071
same,"k2, Sequential b",Gammarus pulex [2]; [6],0.0078
same,BCFss,Gammarus pulex [2],9
same,concentration at 48 h,in vivo; [7],≤ 51 ng/g
"NC(=O)N1c2ccccc2C=Cc2ccccc21 [Carbamazepine, carbamazepine]",stability of aqueous pharmaceutical concentration,[1],remained stable
same,"Concentration, 24 h",[1],1.01 ng/mL
same,"Concentration, 48 h",[1],1.07 µg/L
same,"Concentration, Day 2 (initial pharmaceutical concentration on day 2)",[1]; exposure media,1.08 ng/mL
same,"Concentration, Day 1 (initial pharmaceutical concentration on day 1)",[1]; exposure media,1.12 ng/mL
same,BCF in Gammarus fossarum,Gammarus fossarum,5 L/kg
same,BCF in two species of fish (Pimephales notatus and I. punctatus),[3],< 7 L/kg
same,BCFparent from the average of k1 over the 48 h time interval,Gammarus pulex [2]; [6],26 L/kg
same,concentration at 6 h,in vivo; [8],8 ng/g
same,concentration at 24 h,in vivo; [8],11 ng/g
same,concentration at 48 h,in vivo; [9],14 ng/g
same,concentration at 48 h,in vivo; [7],≤ 51 ng/g
"CN1C(=O)CN=C(c2ccccc2)c2cc(Cl)ccc21 [Diazepam, diazepam]",BCF in marine mussel Mytilus galloprovincialis,[4],51 L/kg
same,"Concentration, 24 h",[1],0.86 ng/mL
same,"Concentration, 48 h",[1],0.89 µg/L
same,"Concentration, Day 2 (initial pharmaceutical concentration on day 2)",[1]; exposure media,1.04 ng/mL
same,"Concentration, Day 1 (initial pharmaceutical concentration on day 1)",[1]; exposure media,1.02 ng/mL
same,BCFparent from the average of k1 over the 48 h time interval,Gammarus pulex [2]; [10],48 L/kg
same,"BCFparent, Sequential a",Gammarus pulex [2]; [11],58 L/kg
same,"k1, Sequential a",Gammarus pulex [2]; [11],2.6469
same,"k2, Sequential a",Gammarus pulex [2]; [11],0.046
same,"BCFparent, Sequential b",Gammarus pulex [2]; [12],53 L/kg
same,"k1, Sequential b",Gammarus pulex [2]; [12],3.0917
same,"k2, Sequential b",Gammarus pulex [2]; [12],0.0582
same,"BCFparent, Simultaneous",Gammarus pulex [2]; [13],41 L/kg
same,"k2 (depuration rate constant), Simultaneous",Gammarus pulex [2]; [13],0.2349
same,BCFss,Gammarus pulex [2],45
same,concentration at 6 h,in vivo; [8],31 ng/g
same,concentration at 24 h,in vivo; [8],37 ng/g
O=C(O)Cc1ccccc1Nc1c(Cl)cccc1Cl [Diclofenac],"SeqBCF, Full Design",G. pulex,21
same,"SeqBCF^a, Full Design",G. pulex,27
same,"SimBCF, Full Design",G. pulex,14
COc1ccc(CC(C)NCC(O)c2ccc(O)c(NC=O)c2)cc1 (centres unmarked) [Formoterol],"SeqBCF, Full Design",G. pulex,33
same,"SeqBCF^a, Full Design",G. pulex,18
same,"SimBCF, Full Design",G. pulex,14
CN(C)CCCN1c2ccccc2CCc2ccccc21 [Imipramine],"SeqBCF, Full Design",G. pulex,4533
same,"SeqBCF^a, Full Design",G. pulex,3811
same,"SimBCF, Full Design",G. pulex,212
"CC(C)NCC(O)COc1cccc2ccccc12 (centres unmarked) [Propranolol, Propranolol hydrochloride]","Concentration, 24 h",[1],8.92 ng/mL
same,"Concentration, 48 h",[1],6.41 μg L^−1 and 6.41 ^a μg L^−1
same,decline of aqueous concentration,"[1]; exposure media, after the first 24 h",29%
same,"Concentration, Day 2 (initial pharmaceutical concentration on day 2)",[1]; exposure media,8.98 ng/mL
same,"Concentration, Day 1 (initial pharmaceutical concentration on day 1)",[1]; exposure media,9.22 ng/mL
"CN1C(=O)C(O)N=C(c2ccccc2)c2cc(Cl)ccc21 (centres unmarked) [Temazepam, temazepam]",stability of aqueous pharmaceutical concentration,[1],remained stable
same,"Concentration, 24 h",[1],0.85 ng/mL
same,"Concentration, 48 h",[1],1.03 µg/L
same,"Concentration, Day 2 (initial pharmaceutical concentration on day 2)",[1]; exposure media,1.17 ng/mL
same,"Concentration, Day 1 (initial pharmaceutical concentration on day 1)",[1]; exposure media,0.96 ng/mL
same,mean concentration of biotransformation product at 48 h (end of the uptake phase),"Gammarus pulex [5]; G. pulex, after exposure to the precursor compound (propranolol 10 μg L^−1, diazepam 1 μg L^−1)",6 ± 3 ng g^−1 dw
same,k2 of biotransformation product,"Gammarus pulex [5]; G. pulex, diazepam exposure",0.016 day⁻¹
same,detection of biotransformation product in G. pulex at 96 h,Gammarus pulex [5],not detectable
same,BCFparent from the average of k1 over the 48 h time interval,Gammarus pulex [2]; [10],40 L/kg
same,"BCFparent, Sequential a",Gammarus pulex [2]; [11],41 L/kg
same,"k1, Sequential a",Gammarus pulex [2]; [11],2.8514
same,"k2, Sequential a",Gammarus pulex [2]; [11],0.0702
same,"BCFparent, Sequential b",Gammarus pulex [2]; [12],41 L/kg
same,"k1, Sequential b",Gammarus pulex [2]; [12],2.751
same,"k2, Sequential b",Gammarus pulex [2]; [12],0.0669
same,"BCFparent, Simultaneous",Gammarus pulex [2]; [13],37 L/kg
same,"k1 (uptake rate constant), Simultaneous",Gammarus pulex [2]; [13],4.3326
same,"k2 (depuration rate constant), Simultaneous",Gammarus pulex [2]; [13],0.1186
same,BCFss,Gammarus pulex [2],38
same,concentration at 6 h,in vivo; [8],20 ng/g
same,concentration at 24 h,in vivo; [8],32 ng/g
same,concentration at 48 h,in vivo; [9],38 ng/g
same,concentration at 48 h,in vivo; [7],≤ 51 ng/g
CC(C)(C)NCC(O)c1cc(O)cc(O)c1 (centres unmarked) [Terbutaline],"SeqBCF, Full Design",G. pulex,19
same,"SeqBCF^a, Full Design",G. pulex,22
same,"SimBCF, Full Design",G. pulex,12
COc1cc(Cc2cnc(N)nc2N)cc(OC)c1OC [Trimethoprim],"Concentration, 24 h",[1],1.01 ng/mL
same,"Concentration, 48 h",[1],0.97 µg/L
same,"Concentration, Day 2 (initial pharmaceutical concentration on day 2)",[1]; exposure media,0.99 ng/mL
same,"Concentration, Day 1 (initial pharmaceutical concentration on day 1)",[1]; exposure media,1.09 ng/mL
"NC(=O)N1c2ccccc2C2OC2c2ccccc21 (centres unmarked) [carbamazepine-10,11-epoxide]",detection of biotransformation product in G. pulex at 96 h,Gammarus pulex [5],not detected
same,detection of biotransformation product in G. pulex,"Gammarus pulex [5]; carbamazepine exposure, 24 h and 48 h",detection
same,quantifiability of biotransformation product in G. pulex,"Gammarus pulex [5]; carbamazepine exposure, signals below signal to noise ratio of 10:1",not quantifiable
O=C1CN=C(c2ccccc2)c2cc(Cl)ccc2N1 [nordiazepam],concentration of biotransformation product (higher than the parent compound),"Gammarus pulex [5]; G. pulex, diazepam exposure",94 ng g^−1 dw
same,k2 of biotransformation product,"Gammarus pulex [5]; G. pulex, diazepam exposure",0.0194 day⁻¹
same,mean concentration of biotransformation product reached,"Gammarus pulex [5]; G. pulex, diazepam exposure, time not stated",64 ± 27 ng g^−1 dw
O=C1Nc2ccc(Cl)cc2C(c2ccccc2)=NC1O (centres unmarked) [oxazepam],BCF in Gammarus fossarum,Gammarus fossarum,22 L/kg
same,reduction of mean internal concentration over the 48 h depuration period,"Gammarus pulex [5]; G. pulex, diazepam exposure",21 ng g^−1 dw
same,k2 of biotransformation product,"Gammarus pulex [5]; G. pulex, diazepam exposure",0.009 day⁻¹

# Reference: PMC5476196, “Uptake, biotransformation and elimination of selected pharmaceuticals in a freshwater invertebrate measured using liquid chromatography tandem mass spectrometry” (Chemosphere, 2017)
